Source: US20060130172A1, “Gene encoding resistance to acetolactate synthase-inhibiting herbicides” (priority 2003, published 2006)

Key:
[1] = system: R11-AMACH smooth pigweed; assay: Greenhouse screen of ALS-inhibiting herbicides on resistant smooth pigweed biotype; assay type: in vivo, Amaranthus hybridus L.; settings: 3 WAT; for Biomass Reduction: compared to untreated plant biomass; for Biomass: plant dry weight; for Visual Control: scale 0-99%
Text: (§1) Seeds from a smooth pigweed (Aniaranthus hybridus L.) population (R11-AMACH) were collected from a field in southeastern Pennsylvania where extreme ALS-inhibitor herbicide selection pressure was imposed over a several year period within continuous soybean production. R11-AMACH was selected naturally with ALS-inhibiting herbicides representative of the SU, IMI, and TP herbicide chemistries.
(§2) To establish levels and patterns of ALS resistance, R11-AMACH and an ALS susceptible smooth pigweed biotype (S-AMACH) were screened in the greenhouse with various rates of the ALS-inhibiting herbicides, chlorimuron (SU), thifensulfuron (SU), imazethapyr (IMI), pyrithiobac (POB), and cloransulam-methyl (TP). Rates evaluated were based on a log10 scale that included 0, 1/100×, 1/10×, 1×, 10×, and 100×, where 1× corresponds to the normal use rate in the field. R11-AMACH responded differently to the rate increase as compared to S-AMACH. […] Visual control, height, biomass, and biomass reduction are presented separately for chlorimuron (Table 3), thifensulfuron (Table 4), imazethapyr (Table 5), pyrithiobac (Table 6), and cloransulam (Table 7). Evaluations and measurements were recorded 3 weeks after herbicide treatment (WAT). Visual control was based on a scale of 0-99%, where 0% represents no control and 99% represents complete control. Biomass represents plant dry weights recorded several days after plants were harvested. Biomass reduction was calculated based on the amount of biomass reduced by herbicide treatment compared to the untreated plant biomass.

[2] = system: S-AMACH smooth pigweed; assay: Greenhouse screen of ALS-inhibiting herbicides on susceptible smooth pigweed biotype; assay type: in vivo, Amaranthus hybridus L.; settings: 3 WAT; for Biomass Reduction: compared to untreated plant biomass; for Biomass: plant dry weight; for Visual Control: scale 0-99%
Text: as §1, §2

[3] = rate 1/100× (1× = normal use rate in the field)

Structure (SMILES)	Height ([1]; rate 1/10×) [cm]	Biomass Reduction ([1]; rate 1/10×) [%]	Biomass ([1]; rate 1/10×) [g]	Visual Control ([1]; rate 1/10×) [%]	Visual Control [1, 3] [%]	Height ([1]; rate 1/100×) [cm]	Biomass Reduction ([1]; rate 1/100×) [%]	Biomass ([1]; rate 1/100×) [g]	Visual Control ([1]; rate 1× (normal use rate)) [%]	Height ([1]; rate 1×) [cm]	Biomass Reduction ([1]; rate 1×) [%]	Biomass ([1]; rate 1×) [g]	Height ([1]; rate 10×) [cm]	Biomass Reduction ([1]; rate 10×) [%]	Biomass ([1]; rate 10×) [g]	Visual Control ([1]; rate 10×) [%]	Height ([1]; rate 100×) [cm]	Biomass Reduction ([1]; rate 100×) [%]	Biomass ([1]; rate 100×) [g]	Visual Control ([1]; rate 100×) [%]	also measured
COc1nc(C)nc(NC(=O)NS(=O)(=O)c2ccsc2C(=O)O)n1 [thifensulfuron, 3-[[[[(4-methoxy-6-methyl-1,3,5-triazin-2-yl)amino]carbonyl]-amino]sulfonyl]-2-thiophenecarboxylic acid]	32.5	−17.1	4.45	9	4	36.0	−10.8	4.21	22	23.0	8.4	3.48	15.8	40.8	2.25	38	6.8	84.7	0.58	64	Height ([2]; rate 1/10×): 11.0 cm; Biomass Reduction ([2]; rate 1/10×): 75.2%; Biomass ([2]; rate 1/10×): 0.85 g; Visual Control ([2]; rate 1/10×): 47%; Height ([2]; rate 1/100×): 25.0 cm; Biomass Reduction ([2]; rate 1/100×): 48.7%; Biomass ([2]; rate 1/100×): 1.76 g; Visual Control ([2]; rate 1/100×): 22%; Visual Control ([2]; rate 1× (normal use rate)): 98%; Height ([2]; rate 1×): 2.0 cm; Biomass Reduction ([2]; rate 1×): 98.0%; Biomass ([2]; rate 1×): 0.07 g; Height ([2]; rate 10×): 0.3 cm; Biomass Reduction ([2]; rate 10×): 98.8%; Biomass ([2]; rate 10×): 0.04 g; Visual Control ([2]; rate 10×): 99%; Height ([2]; rate 100×): 0.5 cm; Biomass Reduction ([2]; rate 100×): 99.1%; Biomass ([2]; rate 100×): 0.03 g; Visual Control ([2]; rate 100×): 99%
COc1cc(OC)nc(Sc2cccc(Cl)c2C(=O)O)n1 [pyrithiobac, 2-chloro-6-[(4,6-dimethoxy-2-pyrimidinyl)thio]benzoic acid]	22.0	36.3	2.42	21	7	26.5	26.8	2.78	30	17.8	37.4	2.38	11.0	71.8	1.07	48	2.5	98.2	0.07	97	Height ([2]; rate 1/10×): 8.8 cm; Biomass Reduction ([2]; rate 1/10×): 89.2%; Biomass ([2]; rate 1/10×): 0.37 g; Visual Control ([2]; rate 1/10×): 59%; Height ([2]; rate 1/100×): 21.8 cm; Biomass Reduction ([2]; rate 1/100×): 49.6%; Biomass ([2]; rate 1/100×): 1.73 g; Visual Control ([2]; rate 1/100×): 16%; Visual Control ([2]; rate 1× (normal use rate)): 99%; Height ([2]; rate 1×): 2.0 cm; Biomass Reduction ([2]; rate 1×): 98.0%; Biomass ([2]; rate 1×): 0.07 g; Height ([2]; rate 10×): 1.8 cm; Biomass Reduction ([2]; rate 10×): 96.5%; Biomass ([2]; rate 10×): 0.12 g; Visual Control ([2]; rate 10×): 99%; Height ([2]; rate 100×): 0.5 cm; Biomass Reduction ([2]; rate 100×): 98.8%; Biomass ([2]; rate 100×): 0.04 g; Visual Control ([2]; rate 100×): 99%
COc1cc(Cl)nc(NC(=O)NS(=O)(=O)c2ccccc2C(=O)O)n1 [chlorimuron, 2-[[[[(4-chloro-6-methoxy-2-pyrimidinyl)-amino]carbonyl]amino]-sulfonyl]benzoic acid]	26.5	3.7	3.66	6	5	23.5	10.0	3.42	15	21.8	3.5	3.67	23.5	17.1	3.15	18	14.8	56.8	1.64	39	Height ([2]; rate 1/10×): 14.3 cm; Biomass Reduction ([2]; rate 1/10×): 52.0%; Biomass ([2]; rate 1/10×): 1.65 g; Visual Control ([2]; rate 1/10×): 20%; Height ([2]; rate 1/100×): 27.8 cm; Biomass Reduction ([2]; rate 1/100×): 30.9%; Biomass ([2]; rate 1/100×): 2.37 g; Visual Control ([2]; rate 1/100×): 9%; Visual Control ([2]; rate 1× (normal use rate)): 81%; Height ([2]; rate 1×): 4.8 cm; Biomass Reduction ([2]; rate 1×): 95.8%; Biomass ([2]; rate 1×): 0.14 g; Height ([2]; rate 10×): 1.0 cm; Biomass Reduction ([2]; rate 10×): 98.6%; Biomass ([2]; rate 10×): 0.05 g; Visual Control ([2]; rate 10×): 99%; Height ([2]; rate 100×): 1.3 cm; Biomass Reduction ([2]; rate 100×): 96.7%; Biomass ([2]; rate 100×): 0.11 g; Visual Control ([2]; rate 100×): 99%
